Legend:
Assay type in all cases: in vivo
Conditions in all cases: evaluated after 13 days
[1] = tested on: Setaria faberi (SETFA); experiment: Pre-emergence Test, Setaria faberi (SETFA)
[2] = tested on: Echinochloa crus-galli (ECHCG); experiment: Pre-emergence Test, Echinochloa crus-galli (ECHCG)
[3] = tested on: Zea mays (ZEAMX); experiment: Pre-emergence Test, Zea mays (ZEAMX)
[4] = tested on: Ipomoea hederacea (IPOHE); experiment: Pre-emergence Test, Ipomoea hederacea (IPOHE)
[5] = tested on: Amaranthus palmeri (AMAPA); experiment: Pre-emergence Test, Amaranthus palmeri (AMAPA)
[6] = tested on: Amaranthus retoflexus (AMARE); experiment: Pre-emergence Test, Amaranthus retoflexus (AMARE)
[7] = tested on: Setaria faberi (SETFA); experiment: Post-emergence Test, Setaria faberi (SETFA); parameters: key to percentage damage caused to the plant, SETFA (five-point scale): 5=81-100%, 4=61-80%, 3=41-60%, 2=21-40%, 1=0-20% damage
Summary of the method: (§1)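 Scores are percentage plant damage on a 1–5 scale (1=0-20%, 2=21-40%, 3=41-60%, 4=61-80%, 5=81-100%), read 13 days after treatment. Pots received a spray at 1000 g/ha unless otherwise stated, formulated in acetone/water (50:50) containing 0.5% Tween 20.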

[8] = tested on: Echinochloa crus-galli (ECHCG); experiment: Post-emergence Test, Echinochloa crus-galli (ECHCG); parameters: key to percentage damage caused to the plant, ECHCG (five-point scale): 5=81-100%, 4=61-80%, 3=41-60%, 2=21-40%, 1=0-20% damage
Summary of the method: as §1

[9] = tested on: Zea mays (ZEAMX); experiment: Post-emergence Test, Zea mays (ZEAMX); parameters: key to percentage damage caused to the plant, ZEAMX (five-point scale): 5=81-100%, 4=61-80%, 3=41-60%, 2=21-40%, 1=0-20% damage
Summary of the method: as §1

[10] = tested on: Ipomoea hederacea (IPOHE); experiment: Post-emergence Test, Ipomoea hederacea (IPOHE); parameters: key to percentage damage caused to the plant, IPOHE (five-point scale): 5=81-100%, 4=61-80%, 3=41-60%, 2=21-40%, 1=0-20% damage
Summary of the method: as §1

[11] = tested on: Amaranthus palmeri (AMAPA); experiment: Post-emergence Test, Amaranthus palmeri (AMAPA); parameters: key: 5=81-100%, 4=61-80%, 3=41-60%, 2=21-40%, 1=0-20% damage
Summary of the method: as §1

[12] = tested on: Amaranthus retoflexus (AMARE); experiment: Post-emergence Test, Amaranthus retoflexus (AMARE); parameters: key to percentage damage caused to the plant, AMARE (five-point scale): 5=81-100%, 4=61-80%, 3=41-60%, 2=21-40%, 1=0-20% damage
Summary of the method: as §1

| SMILES | Pre-emergence Test SETFA, percentage damage caused to the plant (five-point scale) ([1]; 1000 g/ha) | Pre-emergence Test ECHCG, percentage damage caused to the plant (five-point scale) ([2]; 1000 g/ha) | Pre-emergence Test ZEAMX, percentage damage caused to the plant (five-point scale) ([3]; 1000 g/ha) | Pre-emergence Test IPOHE, percentage damage caused to the plant (five-point scale) ([4]; 1000 g/ha) | Pre-emergence Test AMAPA, percentage damage caused to the plant (five-point scale) ([5]; 1000 g/ha) | Pre-emergence Test AMARE, percentage damage caused to the plant (five-point scale) ([6]; 1000 g/ha) | percentage damage caused to the plant, SETFA (five-point scale) ([7]; 250 g/Ha) | percentage damage caused to the plant, SETFA (five-point scale) ([7]; 1000 g/ha) | percentage damage caused to the plant, ECHCG (five-point scale) ([8]; 250 g/Ha) | percentage damage caused to the plant, ECHCG (five-point scale) ([8]; 1000 g/ha) | percentage damage caused to the plant, ZEAMX (five-point scale) ([9]; 250 g/Ha) | percentage damage caused to the plant, ZEAMX (five-point scale) ([9]; 1000 g/ha) | percentage damage caused to the plant, IPOHE (five-point scale) ([10]; 1000 g/ha) | percentage damage caused to the plant, AMAPA (five-point scale) ([11]; 250 g/Ha) | percentage damage caused to the plant, AMAPA (five-point scale) ([11]; 1000 g/ha) | percentage damage caused to the plant, AMARE (five-point scale) ([12]; 250 g/Ha) | percentage damage caused to the plant, AMARE (five-point scale) ([12]; 1000 g/ha) | also measured |
| --- | --- | --- | --- | --- | --- | --- | --- | --- | --- | --- | --- | --- | --- | --- | --- | --- | --- | --- |
| CCn1c(Cn2cc(Cl)c(C)n2)cc(=O)c(C(=O)O)c1-c1ccc(Cl)c(Cl)c1 [Compound 89, 6-[(4-chloro-3-methyl-pyrazol-1-yl)methyl]-2-(3,4-dichlorophenyl)-1-ethyl-4-oxo-pyridine-3-carboxylic acid] | 4 (4=61-80%) | 5 (5=81-100%) | 1 (1=0-20%) | 4 (4=61-80%) | 3 (3=41-60%) | 2 (2=21-40%) | 2 (2=21-40%) | 4 (4=61-80%) | 4 (4=61-80%) | 4 (4=61-80%) | 0 | 3 (3=41-60%) | 3 (3=41-60%) | 1 (1=0-20%) | 3 (3=41-60%) | 1 (1=0-20%) | 1 (1=0-20%) | Pre-emergence Test SETFA, percentage damage caused to the plant (five-point scale) ([1]; 250 g/Ha (*)): 3 (3=41-60%); Pre-emergence Test ECHCG, percentage damage caused to the plant (five-point scale) ([2]; 250 g/Ha (*)): 4 (4=61-80%); Pre-emergence Test ZEAMX, percentage damage caused to the plant (five-point scale) ([3]; 250 g/Ha (*)): 0; Pre-emergence Test IPOHE, percentage damage caused to the plant (five-point scale) ([4]; 250 g/Ha (*)): 3 (3=41-60%); Pre-emergence Test AMAPA, percentage damage caused to the plant (five-point scale) ([5]; 250 g/Ha (*)): 0; Pre-emergence Test AMARE, percentage damage caused to the plant (five-point scale) ([6]; 250 g/Ha (*)): 0 |
| CCOC(=O)c1c(-c2ccc(Cl)c(Cl)c2)n(CC)c(Cn2cc(F)cn2)cc1=O [Compound 8, ethyl 2-(3,4-dichlorophenyl)-1-ethyl-6-[(4-fluoropyrazol-1-yl)methyl]-4-oxo-pyridine-3-carboxylate] | 1 (1=0-20%) | 3 (3=41-60%) | 0 | 1 (1=0-20%) | 0 | 0 |  | 4 (4=61-80%) |  | 1 (1=0-20%) |  | 1 (1=0-20%) | 1 (1=0-20%) |  | 1 (1=0-20%) |  | 1 (1=0-20%) |  |
| CCn1c(Cn2nc(C(=O)OC)cc2C(=O)OC)cc(=O)c(C(=O)O)c1-c1ccc(Cl)c(Cl)c1 [Compound 115, 6-[[3,5-bis(methoxycarbonyl)pyrazol-1-yl]methyl]-2-(3,4-dichlorophenyl)-1-ethyl-4-oxo-pyridine-3-carboxylic acid] | 1 (1=0-20%) | 0 | 0 | 0 | 1 (1=0-20%) | 0 | 0 | 0 | 0 | 0 | 0 | 1 (1=0-20%) | 0 | 1 (1=0-20%) | 2 (2=21-40%) | 1 (1=0-20%) | 0 | percentage damage caused to the plant, IPOHE (five-point scale) ([10]; 250 g/Ha): 0 |

Source: patent US20250098679A1, “HERBICIDAL PYRIDONE DERIVATIVES” (SYNGENTA CROP PROTECTION AG, priority 2021, published 2025)
